From patent publication US12227487B1, “Acyloxy substituted phenyl dithiane derivatives” (Renovel Innovations, Inc, priority 2021, dated 2025)

Legend:
TNF-α = TNF-α level in Lipopolysaccharide (LPS) treated mice; assay type: in vivo; conditions: compared to the control Lipopolysaccharide (LPS) group
COX-1 enzyme = COX-1 enzyme (Homo sapiens, UniProt P23219); test: COX-1 enzyme inhibition; assay type: biochemical; conditions: FIG. 3A
IL-6 = IL-6 level in LPS treated mice; assay type: in vivo; conditions: compared to the control LPS group
mice = test: Disease Activity Index in DSS mice, 21 day study; assay type: in vivo; conditions: end of study period of 21 days, compared with the vehicle DSS group, P<0.04
COX-2 enzyme = molecular target: T1, COX-2 enzyme (Homo sapiens, UniProt P35354); test: COX-2 enzyme inhibition; assay type: biochemical; conditions: FIG. 3A
T1 sequence (P35354 18-604): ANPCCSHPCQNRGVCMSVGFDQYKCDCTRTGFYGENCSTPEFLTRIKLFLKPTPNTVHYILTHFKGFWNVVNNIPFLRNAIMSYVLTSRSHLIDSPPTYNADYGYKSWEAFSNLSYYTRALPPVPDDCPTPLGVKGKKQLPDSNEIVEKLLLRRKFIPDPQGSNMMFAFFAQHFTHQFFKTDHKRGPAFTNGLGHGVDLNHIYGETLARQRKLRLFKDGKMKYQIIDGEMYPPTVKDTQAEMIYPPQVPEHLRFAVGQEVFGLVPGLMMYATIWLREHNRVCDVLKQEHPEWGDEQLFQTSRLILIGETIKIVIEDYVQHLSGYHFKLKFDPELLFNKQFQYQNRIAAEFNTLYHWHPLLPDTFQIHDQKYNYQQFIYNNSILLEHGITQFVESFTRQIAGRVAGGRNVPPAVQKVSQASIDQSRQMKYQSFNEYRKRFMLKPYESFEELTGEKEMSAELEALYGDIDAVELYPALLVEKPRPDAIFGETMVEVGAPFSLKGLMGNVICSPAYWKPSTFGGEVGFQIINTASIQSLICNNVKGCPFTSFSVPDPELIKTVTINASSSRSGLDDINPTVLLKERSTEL

Sequence of COX-1 enzyme (P23219 24-599): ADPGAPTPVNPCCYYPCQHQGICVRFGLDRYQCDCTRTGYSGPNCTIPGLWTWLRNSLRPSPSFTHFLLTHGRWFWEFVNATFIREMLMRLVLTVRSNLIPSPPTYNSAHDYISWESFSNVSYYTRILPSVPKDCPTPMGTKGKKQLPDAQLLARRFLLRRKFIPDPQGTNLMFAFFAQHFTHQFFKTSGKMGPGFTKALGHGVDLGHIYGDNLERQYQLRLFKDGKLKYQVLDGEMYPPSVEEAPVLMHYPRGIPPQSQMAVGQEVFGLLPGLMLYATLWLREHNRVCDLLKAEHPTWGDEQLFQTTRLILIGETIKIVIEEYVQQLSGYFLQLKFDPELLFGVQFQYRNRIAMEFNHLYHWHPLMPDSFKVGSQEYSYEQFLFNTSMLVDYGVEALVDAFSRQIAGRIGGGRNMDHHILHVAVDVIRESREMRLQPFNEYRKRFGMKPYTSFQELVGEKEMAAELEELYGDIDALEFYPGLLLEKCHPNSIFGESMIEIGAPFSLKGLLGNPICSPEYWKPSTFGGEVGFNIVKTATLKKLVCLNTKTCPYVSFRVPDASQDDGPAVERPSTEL

| SMILES | decrease of TNF-α (TNF-α) [%] | reduction of COX-1 enzyme activity (COX-1 enzyme) [%] | decrease of IL-6 (IL-6) [%] | decrease in Disease Activity Index (mice) [%] | reduction of COX-2 enzyme activity (COX-2 enzyme) [%] |
| --- | --- | --- | --- | --- | --- |
| COc1cc(C2SCCCS2)ccc1OC(=O)/C=C/c1ccccc1 [compound 2, 4-(1,3-dithian-2-yl)-2-methoxyphenyl cinnamate] | 26 |  |  |  |  |
| CC/C=C\CC(=O)Oc1ccc(Br)cc1C1SCCCS1 [compound 1, (Z)-4-bromo-2-(1,3-dithian-2-yl)phenyl hex-3-enoate] | 53 | 38 | 19 | 23 | 45 |
